Data as given in PubChem BioAssay AID1745844 (Carcinogenic Potency Database (CPDB), 2022).
The source made the active and inactive calls. No rule for the calls is given here.

System: rodent lifetime carcinogenesis bioassay, tumor incidence TD50
Experiment: carcinogenic potency in animals, long-term in vivo studies, CPDB compilation (AID 1745844)
[1] = mouse, strain B6AKF1, females, oral dosing, site: any site (literature study), lesion: several types, types named in the paper, dosed 76 weeks, study length 76 weeks
[2] = mouse, strain B6AKF1, females, oral dosing, site: lung, lesion: adenoma, dosed 76 weeks, study length 76 weeks
[3] = mouse, strain B6AKF1, males, oral dosing, site: any site (literature study), lesion: several types, types named in the paper, dosed 76 weeks, study length 76 weeks
[4] = mouse, strain B6AKF1, males, oral dosing, site: liver, lesion: hepatoma, dosed 76 weeks, study length 76 weeks
[5] = mouse, strain B6C3F1, females, oral dosing, site: any site (literature study), lesion: several types, types named in the paper, dosed 76 weeks, study length 76 weeks
[6] = mouse, strain B6C3F1, females, oral dosing, site: liver, lesion: hepatoma, dosed 76 weeks, study length 76 weeks
[7] = mouse, strain B6C3F1, females, oral dosing, site: lung, lesion: adenoma, dosed 76 weeks, study length 76 weeks
[8] = mouse, strain B6C3F1, males, oral dosing, site: any site (literature study), lesion: several types, types named in the paper, dosed 76 weeks, study length 76 weeks
[9] = mouse, strain B6C3F1, males, oral dosing, site: liver, lesion: hepatoma, dosed 76 weeks, study length 76 weeks
[10] = mouse, strain B6C3F1, males, oral dosing, site: lung, lesion: adenoma, dosed 76 weeks, study length 76 weeks

`CCN(CC)C(=S)SSC(=S)N(CC)CC` was tested, and the TD50 [1] was 1940 mg/kg/day, the TD50 [2] was 4140 mg/kg/day and the TD50 [3] was 10.1 mg/kg/day. For the same molecule, the TD50 [4] was 197 mg/kg/day, the TD50 (mouse, strain B6AKF1, males, oral dosing, site: subcutaneous tissue, lesion: fibrosarcoma, dosed 76 weeks, study length 76 weeks) was 15.4 mg/kg/day and the carcinogen call (mouse, strain B6C3F1, females, in feed, site: any site (literature study), lesion: several types, types named in the paper, dosed 108 weeks, study length 108 weeks) was “negative (inactive)”. For the same molecule, the TD50 (mouse, strain B6C3F1, females, in feed, site: liver, lesion: hepatocellular adenoma + hepatocellular carcinoma + neoplastic nodule, dosed 108 weeks, study length 108 weeks) was 120 mg/kg/day, the TD50 (mouse, strain B6C3F1, females, in feed, site: lung, lesion: alveolar/bronchiolar adenoma + alveolar/bronchiolar carcinoma, dosed 108 weeks, study length 108 weeks) was 323 mg/kg/day and the TD50 [5] was 64.5 mg/kg/day. The TD50 [6] was 283 mg/kg/day, the TD50 [7] was 283 mg/kg/day and the TD50 (mouse, strain B6C3F1, females, oral dosing, site: lung, lesion: carcinoma, dosed 76 weeks, study length 76 weeks) was 283 mg/kg/day. For the same molecule, the TD50 (mouse, strain B6C3F1, females, oral dosing, site: lung, lesion: several types, types named in the paper, dosed 76 weeks, study length 76 weeks) was 138 mg/kg/day, the carcinogen call (mouse, strain B6C3F1, males, in feed, site: any site (literature study), lesion: several types, types named in the paper, dosed 108 weeks, study length 108 weeks) was “negative (inactive)” and the TD50 [8] was 17 mg/kg/day. For the same molecule, the TD50 [9] was 23.7 mg/kg/day, the TD50 [10] was 43.2 mg/kg/day and the carcinogen call (rat, strain Charles River CD (Sprague-Dawley), females, in feed, site: any site (literature study), lesion: one or several types, types not named, dosed 104 weeks, study length 104 weeks) was “negative (inactive)”. For the same molecule, the TD50 (rat, strain Charles River CD (Sprague-Dawley), females, in feed, site: any site (literature study), lesion: several types, types named in the paper, dosed 78 weeks, study length 78 weeks) was 193 mg/kg/day, the TD50 (rat, strain Charles River CD (Sprague-Dawley), females, in feed, site: liver, lesion: neoplastic nodule, dosed 104 weeks, study length 104 weeks) was 41100 mg/kg/day (inactive) and the TD50 (rat, strain Charles River CD (Sprague-Dawley), females, in feed, site: mammary gland, lesion: several types, types named in the paper, dosed 78 weeks, study length 78 weeks) was 68.9 mg/kg/day. For the same molecule, the carcinogen call (rat, strain Charles River CD (Sprague-Dawley), males, in feed, site: any site (literature study), lesion: one or several types, types not named, dosed 104 weeks, study length 104 weeks) was “negative (inactive)”, the carcinogen call (rat, strain Charles River CD (Sprague-Dawley), males, in feed, site: liver, lesion: hepatocellular carcinoma, dosed 104 weeks, study length 104 weeks) was “negative (inactive)” and the TD50 (rat, strain Charles River CD (Sprague-Dawley), males, in feed, site: liver, lesion: hepatocellular tumor, dosed 78 weeks, study length 78 weeks) was 366 mg/kg/day. The TD50 (rat, strain Charles River CD (Sprague-Dawley), males, in feed, site: liver, lesion: neoplastic nodule, dosed 104 weeks, study length 104 weeks) was 678 mg/kg/day (inactive), the carcinogen call (rat, strain Fischer 344, females, in feed, site: any site (literature study), lesion: several types, types named in the paper, dosed 107 weeks, study length 107 weeks) was “negative (inactive)” and the TD50 (rat, strain Fischer 344, females, in feed, site: liver, lesion: hepatocellular adenoma + hepatocellular carcinoma + neoplastic nodule, dosed 107 weeks, study length 107 weeks) was 1430 mg/kg/day. For the same molecule, the carcinogen call (rat, strain Fischer 344, males, in feed, site: any site (literature study), lesion: several types, types named in the paper, dosed 107 weeks, study length 107 weeks) was “negative (inactive)”.

Work on `Nc1nnc(-c2ccc([N+](=O)[O-])o2)s1` yielded a TD50 (rat, strain Sprague-Dawley, females, in feed, site: any site (literature study), lesion: several types, types named in the paper, dosed 45 weeks, study length 66 weeks) of 0.662 mg/kg/day, a TD50 (rat, strain Sprague-Dawley, females, in feed, site: forestomach, lesion: squamous-cell papilloma, dosed 45 weeks, study length 66 weeks) of 23.7 mg/kg/day and a TD50 (rat, strain Sprague-Dawley, females, in feed, site: kidney/pelvis, lesion: transitional-cell carcinoma, dosed 45 weeks, study length 66 weeks) of 73.4 mg/kg/day. It also gave a TD50 (rat, strain Sprague-Dawley, females, in feed, site: lung, lesion: alveolar-cell carcinoma, dosed 45 weeks, study length 66 weeks) of 73.4 mg/kg/day, a TD50 (rat, strain Sprague-Dawley, females, in feed, site: mammary gland, lesion: adenocarcinoma, dosed 45 weeks, study length 66 weeks) of 1.2 mg/kg/day and a TD50 (rat, strain Sprague-Dawley, females, in feed, site: mammary gland, lesion: several types, types named in the paper, dosed 45 weeks, study length 66 weeks) of 0.662 mg/kg/day.

`Clc1cccc(-c2cc(Cl)cc(Cl)c2)c1` was tested, and the TD50 (rat, strain Sprague-Dawley, females, in feed, site: liver, lesion: hepatocellular adenoma, dosed 104 weeks, study length 104 weeks) was 59.3 mg/kg/day, the TD50 (rat, strain Sprague-Dawley, females, in feed, site: liver, lesion: hepatocellular carcinoma, dosed 104 weeks, study length 104 weeks) was 598 mg/kg/day and the TD50 (rat, strain Sprague-Dawley, females, in feed, site: liver, lesion: several types, types named in the paper, dosed 104 weeks, study length 104 weeks) was 53.9 mg/kg/day. For the same molecule, the TD50 (rat, strain Sprague-Dawley, males, in feed, site: liver, lesion: several types, types named in the paper, dosed 104 weeks, study length 104 weeks) was 872 mg/kg/day.

In the case of `Nc1ccc(-c2ccc(N)c(N)c2)cc1N`, the TD50 (mouse, strain CD-1 HaM/ICR, females, in feed, site: any site (literature study), lesion: several types, types named in the paper, dosed 77 weeks, study length 98 weeks) was 599 mg/kg/day (inactive), the TD50 (mouse, strain CD-1 HaM/ICR, females, in feed, site: liver, lesion: several types, types named in the paper, dosed 77 weeks, study length 98 weeks) was 1690 mg/kg/day (inactive) and the TD50 (mouse, strain CD-1 HaM/ICR, females, in feed, site: lung, lesion: several types, types named in the paper, dosed 77 weeks, study length 98 weeks) was 1030 mg/kg/day (inactive). For the same molecule, the TD50 (mouse, strain CD-1 HaM/ICR, males, in feed, site: any site (literature study), lesion: several types, types named in the paper, dosed 77 weeks, study length 94 weeks) was 224 mg/kg/day, the TD50 (mouse, strain CD-1 HaM/ICR, males, in feed, site: liver, lesion: several types, types named in the paper, dosed 77 weeks, study length 94 weeks) was 4170 mg/kg/day (inactive) and the TD50 (mouse, strain CD-1 HaM/ICR, males, in feed, site: lung, lesion: several types, types named in the paper, dosed 77 weeks, study length 94 weeks) was 288 mg/kg/day. It also gave a TD50 (rat, strain Charles River CD (Sprague-Dawley), males, in feed, site: any site (literature study), lesion: several types, types named in the paper, dosed 77 weeks, study length 107 weeks) of 200 mg/kg/day, a TD50 (rat, strain Charles River CD (Sprague-Dawley), males, in feed, site: liver, lesion: hepatoma, dosed 77 weeks, study length 107 weeks) of 395 mg/kg/day and a TD50 (rat, strain Charles River CD (Sprague-Dawley), males, in feed, site: liver, lesion: several types, types named in the paper, dosed 77 weeks, study length 107 weeks) of 259 mg/kg/day.

For `CCCCCCCN`, the carcinogen call (rat, strain Wistar, males, in drinking water, site: any site (literature study), lesion: several types, types named in the paper, dosed 61 weeks, study length 61 weeks) was “negative (inactive)”.

Molecule `Nc1ccc(-c2ccc(F)cc2)cc1` has a TD50 (mouse, strain CBA, females, by gavage, site: liver, lesion: hepatoma, dosed 26 weeks, study length 114 weeks) of 1.09 mg/kg/day, a TD50 (mouse, strain CBA, males, by gavage, site: liver, lesion: hepatoma, dosed 26 weeks, study length 104 weeks) of 1.19 mg/kg/day and a TD50 (mouse, strain CBA, males, by gavage, site: liver, lesion: several types, types named in the paper, dosed 26 weeks, study length 104 weeks) of 1.19 mg/kg/day.

Work on `O=NC(=O)CCNCCO` yielded a TD50 (hamster, strain Syrian Golden, females, by gavage, site: liver, lesion: cholangioadenoma/carcinoma, dosed 50 weeks, study length 65 weeks) of 2.68 mg/kg/day, a TD50 (hamster, strain Syrian Golden, females, by gavage, site: liver, lesion: cholangiocarcinoma, dosed 50 weeks, study length 65 weeks) of 5.58 mg/kg/day and a TD50 (hamster, strain Syrian Golden, females, by gavage, site: liver, lesion: hepatocellular adenoma, dosed 50 weeks, study length 65 weeks) of 5.58 mg/kg/day. It also gave a TD50 (hamster, strain Syrian Golden, females, by gavage, site: liver, lesion: hepatocellular carcinoma/adenoma, dosed 50 weeks, study length 65 weeks) of 3.72 mg/kg/day, a TD50 (hamster, strain Syrian Golden, females, by gavage, site: liver, lesion: several types, types named in the paper, dosed 50 weeks, study length 65 weeks) of 0.997 mg/kg/day and a TD50 (hamster, strain Syrian Golden, females, by gavage, site: lung, lesion: adenoma, dosed 50 weeks, study length 65 weeks) of 31.3 mg/kg/day. The TD50 (hamster, strain Syrian Golden, females, by gavage, site: pancreatic duct, lesion: carcinoma, dosed 50 weeks, study length 65 weeks) was 3.72 mg/kg/day, the TD50 (hamster, strain Syrian Golden, females, by gavage, site: pancreatic duct, lesion: several types, types named in the paper, dosed 50 weeks, study length 65 weeks) was 2.31 mg/kg/day and the TD50 (rat, strain Fischer 344, females, in drinking water, site: liver, lesion: hepatocellular carcinoma, dosed 50 weeks, study length 120 weeks) was 2.7 mg/kg/day. For the same molecule, the TD50 (rat, strain Fischer 344, females, in drinking water, site: liver, lesion: neoplastic nodule, dosed 50 weeks, study length 120 weeks) was 2.7 mg/kg/day and the TD50 (rat, strain Fischer 344, females, in drinking water, site: liver, lesion: several types, types named in the paper, dosed 50 weeks, study length 120 weeks) was 1.8 mg/kg/day.

`S=C(SSSSSSC(=S)N1CCCCC1)N1CCCCC1` was tested, and the TD50 [1] was 120 mg/kg/day (inactive), the carcinogen call (mouse, strain B6AKF1, females, oral dosing, site: liver, lesion: hepatoma, dosed 76 weeks, study length 76 weeks) was “negative (inactive)” and the carcinogen call [2] was “negative (inactive)”. For the same molecule, the carcinogen call [3] was “negative (inactive)”, the carcinogen call [4] was “negative (inactive)” and the carcinogen call (mouse, strain B6AKF1, males, oral dosing, site: lung, lesion: adenoma, dosed 76 weeks, study length 76 weeks) was “negative (inactive)”. The TD50 [5] was 83.1 mg/kg/day (inactive), the carcinogen call [6] was “negative (inactive)” and the TD50 [7] was 83.1 mg/kg/day (inactive). For the same molecule, the TD50 [8] was 52.5 mg/kg/day (inactive), the TD50 [9] was 113 mg/kg/day (inactive) and the TD50 [10] was 113 mg/kg/day (inactive).

Molecule `Cc1ccc(O)c(O)c1` has a TD50 (rat, strain F344/DuCrj, females, in feed, site: forestomach, lesion: squamous-cell carcinoma, dosed 104 weeks, study length 104 weeks) of 1500 mg/kg/day, a TD50 (rat, strain F344/DuCrj, females, in feed, site: forestomach, lesion: squamous-cell papilloma, dosed 104 weeks, study length 104 weeks) of 253 mg/kg/day and a TD50 (rat, strain F344/DuCrj, females, in feed, site: stomach, glandular, lesion: adenocarcinoma, dosed 104 weeks, study length 104 weeks) of 1090 mg/kg/day. For the same molecule, the carcinogen call (rat, strain F344/DuCrj, females, in feed, site: stomach, glandular, lesion: adenoma, dosed 104 weeks, study length 104 weeks) was “positive”, the TD50 (rat, strain F344/DuCrj, females, in feed, site: stomach, glandular, lesion: sarcoma, dosed 104 weeks, study length 104 weeks) was 6500 mg/kg/day and the TD50 (rat, strain F344/DuCrj, males, in feed, site: forestomach, lesion: squamous-cell carcinoma, dosed 104 weeks, study length 104 weeks) was 719 mg/kg/day. For the same molecule, the TD50 (rat, strain F344/DuCrj, males, in feed, site: forestomach, lesion: squamous-cell papilloma, dosed 104 weeks, study length 104 weeks) was 468 mg/kg/day, the TD50 (rat, strain F344/DuCrj, males, in feed, site: stomach, glandular, lesion: adenocarcinoma, dosed 104 weeks, study length 104 weeks) was 656 mg/kg/day and the carcinogen call (rat, strain F344/DuCrj, males, in feed, site: stomach, glandular, lesion: adenoma, dosed 104 weeks, study length 104 weeks) was “positive”. The TD50 (rat, strain F344/DuCrj, males, in feed, site: stomach, glandular, lesion: sarcoma, dosed 104 weeks, study length 104 weeks) was 3830 mg/kg/day.
